Results reported in patent US20050182128A1, “Use of anethole dithiolethione in lung cancer chemoprevention” (priority 2002, published 2005).

What was measured:
bronchial dysplasia = assay: Phase IIb trial: nuclear morphometry index (MI) of bronchial biopsies; type: in vivo, human
Text: The primary outcome of the study was changes in the histopathology grade of the bronchial biopsies before and after six months of intervention. The secondary endpoint was changes in the nuclear morphometry index of the bronchial biopsies.
The method of quantitative nuclear morphometry had been described in detail previously (Lam et al., 1998; Doudkine et al., 1995; Garner et al., 1994). […] Morphometric measurements provide a more objective and reproducible means for the grading of bronchial biopsies than subjective assessment does. The device used to make these high-resolution quantitative morphometric measurements was a Cyto-Savant™ system (Lam et al., 1998; Doudkine et al., 1995; Garner et al., 1994). The images were interactively collected by an experienced cytotechnologist under the direction of a pathologist (JCL). The images were collected using a 20x objective with a numerical aperture of 0.75. Analysis of the nuclei in each tissue consisted of five steps 1) focusing the field of view, 2) automatically segmenting the nuclei in the field, 3) interactively correcting segmentation errors, 4) selecting and classifying the cell nuclei into the categories of basal, intermediate or superficial cells depending or their location within the biopsy where possible, and 5) automatically collecting individually focused images of each selected cell. Additionally, approximately 30 leukocytes were collected to normalize the images for sample to sample variations in staining intensity. On the average, greater than 100 cell nuclei were collected in this fashion for each of the biopsies. Using bulk nuclear features such as the total area and the total amount of light absorbed (which corresponds to the amount of DNA), shape features and descriptions of the distribution of stained DNA (texture features) (Doudkine et al., 1995), a scale was defined with normal nuclei defining one end and cancer-like nuclei defining the other. From the proportion of nuclei along this scale, a Morphometry Index (MI) was derived for each biopsy (Lam et al., 1998).
For quantitative nuclear morphometry, the median MI for histologically normal biopsies was 1.25. The inter-observer variation of measuring the MI was such that a change in MI greater than 0.11 (>2SD) was taken to be a significant change. For the lesion specific analysis, CR was defined as regression of a lesion with a MI of >1.36 to ≦1.36. PD was defined as increase in the MI from ≦1.36 to >1.36. On a participant by participant basis, CR was defined as regression of all sites with MI>1.36 to ≦1.36. PD was defined as progression of any site similar to that defined under the site by site analysis or appearance of new lesions with a MI of >1.36.
Descriptive statistics were used to summarize subject characteristics, and pathologic evaluations of the bronchial biopsy examinations. Comparison between treatment arms was done with the Mann-Whitney test for continuous variables such as age, smoking intensity (pack-years) and MI. Pearson's χ^2 test with continuity correction was used to compare categorical variables such as gender, smoking status (current versus former smokers) and response rates (progression and regression) in the two arms. Fisher's exact test was applied to the lower partial response and stable disease rates. All P values are two-sided. A two-sided P value of less than 0.05 was considered statistically significant.

[1] = tested on: glutathione-S-transferase (GST); conditions: rat model of hepatoma; p<0.01; cited from earlier work

COc1ccc(-c2cc(=S)ss2)cc1 [ADT, 5-(p-methoxyphenyl)-1,2-dithiole-3-thione]
PR rate, subject specific analysis, nuclear morphometry (bronchial dysplasia; 6 months): 3%
Biopsies with MI >1.36 at 6 months (bronchial dysplasia; baseline MI >1.36, of 38): 9
Biopsies with MI ≦1.36 at 6 months (bronchial dysplasia; baseline MI >1.36, of 38): 29
CR rate, lesion specific analysis, nuclear morphometry (bronchial dysplasia; baseline MI >1.36 to ≦1.36 at 6 months, placebo 63%, P=0.37): 76%
Biopsies with MI >1.36 at 6 months (bronchial dysplasia; baseline MI ≦1.36, of 112): 27
Biopsies with MI ≦1.36 at 6 months (bronchial dysplasia; baseline MI ≦1.36, of 112): 85
PD rate, lesion specific analysis, nuclear morphometry (bronchial dysplasia; baseline MI ≦1.36 to >1.36 at 6 months, placebo 33%, P=0.22): 24%
CR, number of subjects, nuclear morphometry (bronchial dysplasia; of 29): 13
PD, number of subjects, nuclear morphometry (bronchial dysplasia; of 29): 12
PR, number of subjects, nuclear morphometry (bronchial dysplasia; of 29): 1
PD rate, person specific analysis, nuclear morphometry (bronchial dysplasia; participants with MI>1.36 pre-treatment, placebo 60%, P=0.28): 41%
PD rate lower than placebo, nuclear morphometry (bronchial dysplasia; person specific, 41% versus 60%): 19%
CR rate higher than placebo, nuclear morphometry (bronchial dysplasia; person specific, 45% versus 24%): 21%
CR rate, person specific analysis, nuclear morphometry (bronchial dysplasia; placebo 24%, p=0.19): 45%
Biopsies with MI >1.36 at 6 months (bronchial dysplasia; total, of 150): 36
Biopsies with MI ≦1.36 at 6 months (bronchial dysplasia; total, of 150): 114
Mean GST levels in the liver [1]: statistically increased
